From patent US12202843B2, “Muscarinic receptor agonists” (Nxera Pharma UK Limited, priority 2014, dated 2025)

How the values were obtained:
Type in all cases: cell-based
[1] = target: T1, human muscarinic M1 receptor (Homo sapiens, UniProt P11229); assay: Alphascreen Surefire phospho-ERK1/2 functional assay, M1; conditions: for EC50: CHO cells stably expressing human M1, read-out: pEC50 M1 (converted); for % Emax cf. ACh, M1: CHO cells stably expressing human M1, relative to ACh; for Emax: CHO, read-out: % Emax cf. ACh, M1, CHO cells stably expressing human M1, relative to ACh
T1 sequence (P11229 1-460): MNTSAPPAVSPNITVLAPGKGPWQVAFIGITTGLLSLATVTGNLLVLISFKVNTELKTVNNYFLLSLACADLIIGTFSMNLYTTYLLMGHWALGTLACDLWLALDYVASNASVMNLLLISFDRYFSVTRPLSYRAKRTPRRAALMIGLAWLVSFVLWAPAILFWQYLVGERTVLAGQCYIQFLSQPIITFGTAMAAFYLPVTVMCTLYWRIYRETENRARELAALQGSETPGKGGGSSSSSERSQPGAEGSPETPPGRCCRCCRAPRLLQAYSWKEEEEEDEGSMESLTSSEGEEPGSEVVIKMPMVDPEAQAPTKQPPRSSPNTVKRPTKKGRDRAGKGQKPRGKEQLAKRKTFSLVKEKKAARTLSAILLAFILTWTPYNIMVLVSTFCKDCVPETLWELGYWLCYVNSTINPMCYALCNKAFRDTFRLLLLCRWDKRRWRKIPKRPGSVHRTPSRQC
Experimental: (§1) ERK1/2 phosphorylation is a downstream consequence of both Gq/11 and Gi/o protein coupled receptor activation, making it highly suitable for the assessment of M1, M3 (Gq/11 coupled) and M2, M4 receptors (Gi/o coupled), rather than using different assay formats for different receptor subtypes. CHO cells stably expressing the human muscarinic M1, M2, M3 or M4 receptor were plated (25K/well) onto 96-well tissue culture plates in MEM-alpha+10% dialysed FBS. Once adhered, cells were serum-starved overnight. Agonist stimulation was performed by the addition of 5 μL agonist to the cells for 5 min (37° C.). Media was removed and 50 μL of lysis buffer added. […] Plates were incubated for 2 h with gentle agitation in the dark and then read on a PHERAstar plate reader.
(§2) pEC50 and Emax figures were calculated from the resulting data for each receptor subtype.

[2] = target: T2, human muscarinic M2 receptor (Homo sapiens, UniProt P08172); assay: Alphascreen Surefire phospho-ERK1/2 functional assay, M2; conditions: for EC50: CHO cells stably expressing human M2, read-out: pEC50 M2 (converted); for Emax: CHO, read-out: % Emax cf. ACh, M2, CHO cells stably expressing human M2, relative to ACh; for % Emax cf. ACh, M2: CHO cells stably expressing human M2, relative to ACh
T2 sequence (P08172 1-466): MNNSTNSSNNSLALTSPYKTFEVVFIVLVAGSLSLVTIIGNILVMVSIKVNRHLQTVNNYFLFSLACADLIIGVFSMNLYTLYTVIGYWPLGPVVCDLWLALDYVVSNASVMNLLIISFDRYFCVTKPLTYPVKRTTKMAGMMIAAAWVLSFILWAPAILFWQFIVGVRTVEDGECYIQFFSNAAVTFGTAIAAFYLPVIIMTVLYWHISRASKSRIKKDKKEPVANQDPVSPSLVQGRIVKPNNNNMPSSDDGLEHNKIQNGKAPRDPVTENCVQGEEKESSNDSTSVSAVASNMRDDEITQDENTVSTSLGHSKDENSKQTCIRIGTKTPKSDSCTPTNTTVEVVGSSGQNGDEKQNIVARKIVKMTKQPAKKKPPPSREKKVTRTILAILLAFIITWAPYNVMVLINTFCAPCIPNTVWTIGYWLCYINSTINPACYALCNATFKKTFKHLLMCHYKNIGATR
Experimental: as §1, §2

[3] = target: T3, human muscarinic M3 receptor (Homo sapiens, UniProt P20309); assay: Alphascreen Surefire phospho-ERK1/2 functional assay, M3; conditions: for EC50: CHO cells stably expressing human M3, read-out: pEC50 M3 (converted); for Emax: CHO, read-out: % Emax cf. ACh, M3, CHO cells stably expressing human M3, relative to ACh; for % Emax cf. ACh, M3: CHO cells stably expressing human M3, relative to ACh
T3 construct: expressed in transfected cells
Experimental: as §1, §2

[4] = target: T4, human muscarinic M4 receptor (Homo sapiens, UniProt P08173); assay: Alphascreen Surefire phospho-ERK1/2 functional assay, M4; conditions: for % Emax cf. ACh, M4: CHO cells stably expressing human M4, relative to ACh; for EC50: CHO cells stably expressing human M4, read-out: pEC50 M4 (converted); for Emax: CHO, read-out: % Emax cf. ACh, M4, CHO cells stably expressing human M4, relative to ACh
T4 construct: expressed in transfected cells
T4 sequence (P08173 1-479): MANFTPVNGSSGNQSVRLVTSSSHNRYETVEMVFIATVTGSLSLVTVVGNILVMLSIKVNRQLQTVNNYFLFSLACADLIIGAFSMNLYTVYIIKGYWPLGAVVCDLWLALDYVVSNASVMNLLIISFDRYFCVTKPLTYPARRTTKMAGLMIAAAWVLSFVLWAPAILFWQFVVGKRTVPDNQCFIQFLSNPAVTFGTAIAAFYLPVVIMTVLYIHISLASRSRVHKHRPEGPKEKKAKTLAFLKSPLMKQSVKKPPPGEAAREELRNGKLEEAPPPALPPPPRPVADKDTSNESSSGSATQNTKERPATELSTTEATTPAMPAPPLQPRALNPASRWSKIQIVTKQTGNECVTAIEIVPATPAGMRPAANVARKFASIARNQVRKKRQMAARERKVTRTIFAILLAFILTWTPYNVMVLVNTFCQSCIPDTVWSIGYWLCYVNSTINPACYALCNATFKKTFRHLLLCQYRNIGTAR
Experimental: as §1, §2

T3 sequence (P20309 whole entry): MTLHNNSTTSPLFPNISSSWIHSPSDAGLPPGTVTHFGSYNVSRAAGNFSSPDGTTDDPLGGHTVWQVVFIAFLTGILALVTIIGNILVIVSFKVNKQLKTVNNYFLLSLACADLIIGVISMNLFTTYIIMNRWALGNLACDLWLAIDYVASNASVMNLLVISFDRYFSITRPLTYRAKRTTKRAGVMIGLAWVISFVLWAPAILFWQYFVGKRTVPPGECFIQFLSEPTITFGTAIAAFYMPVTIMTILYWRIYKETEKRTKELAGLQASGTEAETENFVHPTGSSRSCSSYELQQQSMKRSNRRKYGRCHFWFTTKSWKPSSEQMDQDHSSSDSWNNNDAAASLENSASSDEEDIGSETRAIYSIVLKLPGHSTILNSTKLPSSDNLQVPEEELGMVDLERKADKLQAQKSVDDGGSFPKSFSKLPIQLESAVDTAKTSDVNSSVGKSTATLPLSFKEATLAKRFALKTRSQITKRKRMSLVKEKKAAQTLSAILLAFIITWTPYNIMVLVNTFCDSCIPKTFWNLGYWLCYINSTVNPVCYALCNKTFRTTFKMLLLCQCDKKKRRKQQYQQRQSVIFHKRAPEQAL

Compound | EC50 [1] [nM] | EC50 [2] [nM] | Emax [2] [%] | EC50 [3] [nM] | Emax [3] [%] | EC50 [4] [nM] | Emax [1] [%] | Emax [4] [%] | further results
CCOC(=O)N1C2CCCC1CC(N1CCC3(CC1)CNC(=O)O3)C2 (single isomer, unassigned) [Example 5-4 Isomer 2] | 158 | > 20000 | 2 | > 20000 | 0 | – | – | – | % Emax cf. ACh, M1 [1]: 72%; % Emax cf. ACh, M4 ([4]; listed as 5-4 Isomer 2): 8%
COC(=O)N1CC2CC(N3CCC4(CC3)CNC(=O)C4)CC1C2 (single isomer, unassigned) [Example 6-1 Isomer 2] | 20 | > 20000 | 18 | > 20000 | 5 | 63.1 | – | – | % Emax cf. ACh, M1 ([1]; listed as 6-1 Isomer 2): 104%; % Emax cf. ACh, M4 [4]: 33%
CCOC(=O)N1C2CCC1C(F)C(N1CCC3(CC1)CNC(=O)C3)C2 (single isomer, unassigned) [Example 2-11 Isomer 2] | 251 | > 20000 | 18 | > 20000 | 22 | 200 | – | – | % Emax cf. ACh, M1 [1]: 101%; % Emax cf. ACh, M4 [4]: 55%
CCOC(=O)N1C2CCC1CC(N1CCC3(CC1)OC(=O)NC3C(C)C)C2 (single isomer, unassigned) [Example 2-17 Isomer 2] | 200 | – | – | – | – | 100 | – | – | % Emax cf. ACh, M1 ([1]; listed as 2-17 Isomer 2): 117%; % Emax cf. ACh, M2 [2]: 3%; % Emax cf. ACh, M3 ([3]; listed as 2-17 Isomer 2): 12%; % Emax cf. ACh, M4 ([4]; listed as 2-17 Isomer 2): 72%
[2H]C([2H])([2H])C([2H])([2H])OC(=O)N1C2CCC1CC(N1CCC3(CC1)CNC(=O)C3)C2 (single isomer, unassigned) [Example 2-32 Isomer 2] | 31.6 | – | – | – | – | 50.1 | – | – | % Emax cf. ACh, M1 [1]: 77%; % Emax cf. ACh, M2 [2]: 15%; % Emax cf. ACh, M3 ([3]; listed as 2-32 Isomer 2): 1%; % Emax cf. ACh, M4 [4]: 48%
CCOC(=O)N1CC2CC(N3CCC4(CC3)CNC(=O)C4)CC1C2 (single isomer, unassigned) [Example 6-2 Isomer 2] | 2 | 15.8 | 30 | > 20000 | 18 | 3.98 | 118 | 78 | –
CCOC(=O)N1C2CCC1CC(N1CCC3(CC1)CC(=O)N(CC)C3)C2 (single isomer, unassigned) [Example 2-13 Isomer 2] | 158 | > 20000 | 11 | > 20000 | 57 | 100 | 76 | 49 | –
[2H]C([2H])([2H])COC(=O)N1C2CCC1CC(N1CCC3(CC1)CNC(=O)C3)C2 (single isomer, unassigned) [Example 2-31 Isomer 2] | 25.1 | > 20000 | 11 | > 20000 | 8 | 25.1 | – | – | % Emax cf. ACh, M1 ([1]; listed as 2-31 Isomer 2): 76%; % Emax cf. ACh, M4 ([4]; listed as 2-31 Isomer 2): 26%
C#CCOC(=O)N1C2CCCC1CC(N1CCC3(CC1)CNC(=O)C3)C2 (single isomer, unassigned) [Example 5-2 Isomer 1, prop-2-yn-1-yl 3-(3-oxo-2,8-diazaspiro[4.5]dec-8-yl)-9-azabicyclo[3.3.1]nonane-9-carboxylate] | 100 | > 20000 | 3 | > 20000 | – | 79.4 | – | 37 | % Emax cf. ACh, M1 ([1]; listed as 5-2 Isomer 1): 78%; % Emax cf. ACh, M3 ([3]; listed as 5-2 Isomer 1): 9%
CCOC(=O)N1CC2CCC1CC2N1CCC2(CC1)CNC(=O)C2 (single isomer, unassigned) [Example 3-1 Isomer 4, ethyl 5-(3-oxo-2,8-diazaspiro[4.5]dec-8-yl)-2-azabicyclo[2.2.2]octane-2-carboxylate] | 1260 | – | – | – | – | > 20000 | – | – | % Emax cf. ACh, M1 ([1]; listed as 3-1 Isomer 4): 62%; % Emax cf. ACh, M4 ([4]; listed as 3-1 Isomer 4): 7%
CCSC(=O)N1C2CCC1CC(N1CCC3(CC1)CNC(=O)C3)C2 (single isomer, unassigned) [Example 2-35 Isomer 1] | 39.8 | – | – | – | – | > 20000 | – | 7 | % Emax cf. ACh, M1 ([1]; listed as 2-35 Isomer 1): 24%
CCOC(=O)N1C2CCC1CC(N1CCC3(CC1)CNC(=O)O3)C2 (single isomer, unassigned) [Example 2-14 Isomer 1] | 200 | – | – | – | – | 501 | 108 | 55 | –
CCOC(=O)N1CC2CCC1CC2N1CCC2(CC1)CNC(=O)O2 (single isomer, unassigned) [Example 3-2 Isomer 1, ethyl 5-(2-oxo-1-oxa-3,8-diazaspiro[4.5]dec-8-yl)-2-azabicyclo[2.2.2]octane-2-carboxylate] | 251 | – | – | – | – | 1260 | 111 | 29 | –
CCOC(=O)N1[C@@H]2CC[C@H]1CC(N1CCC3(CC1)OC(=O)NC3Cc1ccccn1)C2 (mixture of isomers) [Example 2-23, ethyl-3-(2-oxo-4-(pyridin-2-ylmethyl)-1-oxa-3,8-diazaspiro[4.5]decan-8-yl)-8-azabicyclo[3.2.1]octane-8-carboxylate] | 501 | – | – | – | – | > 20000 | 86 | 12 | –
CCOC(=O)N1C2CCC1CC(N1CCC3(CC1)OC(=O)NC3(C)C)C2 (single isomer, unassigned) [Example 2-18 Isomer 1] | 251 | – | – | – | – | > 20000 | 55 | 11 | –
[2H]C([2H])(C)OC(=O)N1C2CCC1CC(N1CCC3(CC1)CNC(=O)C3)C2 (single isomer, unassigned) [Example 2-30 Isomer 1, (1,1-^2H2)ethyl 3-(3-oxo-2,8-diazaspiro[4.5]dec-8-yl)-8-azabicyclo[3.2.1]octane-8-carboxylate] | 126 | – | – | – | – | 200 | – | 49 | % Emax cf. ACh, M1 ([1]; listed as 2-30 Isomer 1): 107%
